# Data from the supplement of paper PMC5580409.
# Tested on: Plasmodium falciparum 3D7
# Test: pEC50, asexual blood-stage growth inhibition
# Details: 72 h
# Method: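 Held-out test set measured in the Guy lab in 2014 with the same procedure as the primary St. Jude screen. P. falciparum 3D7 blood-stage culture (2% hematocrit, 1% parasitemia) was treated with compound for 72 h at 37 °C, and growth was read by SYBR Green I fluorescence. EC50 came from a four-parameter Hill fit over a 10-point dilution series […].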
row,Structure (SMILES),pEC50
1,Nc1ccc(-c2nc3cc(-c4nc5cc(N)ccc5[nH]4)ccc3[nH]2)cc1,5.64
2,CN(C)Cc1c(O)ccc2c(=O)c(Oc3ccc(C(C)(C)C)cc3)c(C(F)(F)F)oc12,5.24
3,Cc1cccc2c(C(=O)N3CCN(C/C=C/c4ccccc4)CC3)cc(-c3cccnc3)nc12,< 4.82
4,O=C(Nc1ccc([N+](=O)[O-])cc1O)C1CC1(c1ccccc1)c1ccccc1 (configuration not stated),< 4.82
5,OC(CNc1ccccc1)Cn1c2ccccc2c2ccccc21 (configuration not stated),< 4.82
6,COc1ccc(S(=O)(=O)N2CCC(CO)(Cc3ccccc3C(F)(F)F)CC2)cc1,< 4.82
7,Cc1ccccc1NCC(O)Cn1c2ccc(Cl)cc2c2cc(Cl)ccc21 (configuration not stated),5.44
8,CC(CN1CCCCC1)NC(=O)c1cc(-c2cccnc2)nc2ccc(Cl)cc12 (configuration not stated),5.7
9,Cc1ccc2[nH]c(-c3ccc(Br)cc3)nc2c1,< 4.82
10,CCn1c(SCC(=O)Nc2cc(C(F)(F)F)ccc2Cl)nnc1-c1ccccc1Cl,< 4.82
11,Cc1cccc(NCC(O)Cn2c3ccc(Cl)cc3c3cc(Cl)ccc32)c1 (configuration not stated),5.35
12,COc1ccc(CNC2CCCCC2)cc1OCC(O)CN(C)Cc1ccccc1 (configuration not stated),< 4.82
13,O=C(Cc1cccc2ccccc12)Nc1ccc(-c2nc3ccccc3[nH]2)cc1,5.57
14,CC(C)(C)C(=O)N1CCN(C(c2ccccc2)c2ccccc2)CC1,< 4.82
15,Cc1cccc(Oc2c(C(F)(F)F)oc3c(CN4CCCC4)c(O)ccc3c2=O)c1,< 4.82
16,O=C(Cc1ccccc1)Nc1ccc(-c2nc3cc(-c4nc5cc(NC(=O)Cc6ccccc6)ccc5[nH]4)ccc3[nH]2)cc1,< 4.82
17,C=CCn1c(=N)n(CC(O)c2ccc(Br)cc2)c2ccccc21 (configuration not stated),5.62
18,COc1cc(OC)cc(C(=O)Nc2ccc(-c3nc4cc(C)ccc4[nH]3)cc2)c1,5.29
19,Oc1ccc(Br)cc1CN1CCN(C2CCCCCC2)CC1,6.34
20,OC(CNc1cccc2ccccc12)Cn1c2ccccc2c2ccccc21 (configuration not stated),< 4.82
21,COc1ccc(OC)c(NCC(O)Cn2c3ccc(Cl)cc3c3cc(Cl)ccc32)c1 (configuration not stated),< 4.82
22,Cc1ccc(OCC(O)Cn2c(=N)n(CCN3CCOCC3)c3ccccc32)cc1 (configuration not stated),< 4.82
23,COc1c(O)ccc(/C=N/NC(=O)C2CC2(c2ccccc2)c2ccccc2)c1[N+](=O)[O-] (configuration not stated),< 4.82
24,CC(Nc1cc(N2CCN(C(=O)c3ccccc3)CC2)ccc1[N+](=O)[O-])c1ccccc1 (configuration not stated),6.18
25,N=c1n(CCN2CCCC2)c2ccccc2n1CC(O)c1ccc(Cl)c(Cl)c1 (configuration not stated),5.88
26,CN1CCN(Cc2c(O)ccc3c(=O)c(-c4cccc5ccccc45)c(C(F)(F)F)oc23)CC1,< 4.82

row,Structure (SMILES),pEC50
1,Oc1ccc(Br)cc1CN1CCN(CC2CC3C=CC2C3)CC1 (configuration not stated),5.39
2,OC(CNC1CC1)Cn1c2ccccc2c2ccccc21 (configuration not stated),< 4.82
3,Cc1cc(Nc2ccccc2C(F)(F)F)nc(-n2nc(C)cc2C)n1,< 4.82
4,Oc1ccc(Br)cc1CN1CCN(Cc2cccc3ccccc23)CC1,6.3
5,CC(C)c1ccc(NC(=O)/C=C/c2ccccc2)cc1,5.16
6,Cc1cccc(C2(c3cccc(C)c3)CC2C(=O)Nc2cc([N+](=O)[O-])ccc2O)c1 (configuration not stated),5.27
7,Cc1ccc(OCCN(C)C(=O)c2cn(C3CCCCC3)cc(C(=O)NC(C)(C)C)c2=O)cc1,5.03
8,OC(CN1CCCCCC1)Cn1c2ccccc2c2ccccc21 (configuration not stated),< 4.82
9,COc1ccc(CN2CCCn3c4c(c5cc(C)ccc53)CCCC42)c(OC)c1 (configuration not stated),< 4.82
10,CCN1CCN(Cc2c(O)ccc3c(=O)c(Oc4ccccc4Br)c(C(F)(F)F)oc23)CC1,5.46
11,Cc1ccccc1Cn1c(=N)n(CC(O)c2ccc(Cl)c(Cl)c2)c2ccccc21 (configuration not stated),6.39
12,CC1CCC(C(C)C)C(OCC(O)CNC2CCCC2)C1 (configuration not stated),5.46
13,CCc1cccc(NC(=O)/C=C/c2ccccc2Cl)c1,5.36
14,Cc1ccc(NCC(O)Cn2c3ccccc3c3ccccc32)cc1 (configuration not stated),< 4.82
15,Cc1cccc(C2(c3cccc(C)c3)CC2C(=O)Nc2ccc([N+](=O)[O-])cc2O)c1 (configuration not stated),5.36
16,Cc1cccc2c(C(=O)N3CCN(Cc4ccccc4)CC3)cc(-c3cccnc3)nc12,5.25
17,CCN(CC)CCN1C(=O)c2ccccc2NC1c1ccc(Cl)cc1Cl (configuration not stated),< 4.82
18,CCOC(=O)c1ccc(NC(=O)/C=C/c2ccccc2Cl)cc1,< 4.82
19,CCOC(=O)c1cnc2c(OC)cccc2c1Nc1cccc(C(C)=O)c1,5.55
20,CCN1\C(=C/C=C(C)/C=C/c2sc3ccccc3[n+]2CC)Sc2ccccc21,5.34
21,OCC(O)Cn1c2ccc(Br)cc2c2cc(Br)ccc21 (configuration not stated),< 4.82
22,COc1cccc(CNc2nnnn2C)c1OCc1ccc(C)cc1,< 4.82
23,CCOc1cc(C2C(C(=O)OCC(C)C)=C(C)NC3=C2C(=O)CC(c2ccc(Cl)cc2)C3)ccc1O (configuration not stated),< 4.82
24,CCOC(=O)C1=C(C)NC2=C(C(=O)CC(c3ccco3)C2)C1c1ccc(OC)c(OC)c1 (configuration not stated),< 4.82
25,CCCCNCC(O)COc1ccc(Cl)c(C)c1 (configuration not stated),5.14
26,Cc1ccc(C)c(Oc2c(C(F)(F)F)oc3c(CN4CCN(C)CC4)c(O)ccc3c2=O)c1,< 4.82
